What was measured:
[1] = Stability of Ramipril on exposure to stomach juices / acid pH; assay type: physicochemical
[2] = oral administration, fasted state; cited from earlier work
[3] = cited from earlier work

Compound: CCOC(=O)[C@H](CCc1ccccc1)N[C@@H](C)C(=O)N1[C@H](C(=O)O)C[C@@H]2CCC[C@@H]21 [Ramipril, (2S,3aS,6aS)-1[(S)-N-[(S)-1-carboxy-3-phenylpropyl]alanyl]octahydrocyclopenta[b]pyrrole-2-carboxylic acid, 1-ethyl ester]
- Stability on exposure to stomach juices (acid pH) [1]: breaks down
- Time to peak plasma concentrations [2]: one

Compound: CC(=O)Oc1ccccc1C(=O)O [aspirin]
- Absorption in the presence of food [3]: delayed
